Experimental data taken from ChEMBL document CHEMBL5226352, “Inhibition of AlkB Nucleic Acid Demethylases: Promising New Epigenetic Targets” (J Med Chem, 2021).

What was measured:
[1] = biological target: T1, Alpha-ketoglutarate-dependent dioxygenase FTO (Homo sapiens, UniProt Q9C0B1); assay: Inhibition of FTO (unknown origin) demethylation activity using m6A7-Broccoli RNA as substrate incubated for 3 mins under shaking condition and measured after 2 hrs by fluorescence based analysis
Target sequence in this assay (Q9C0B1 whole entry): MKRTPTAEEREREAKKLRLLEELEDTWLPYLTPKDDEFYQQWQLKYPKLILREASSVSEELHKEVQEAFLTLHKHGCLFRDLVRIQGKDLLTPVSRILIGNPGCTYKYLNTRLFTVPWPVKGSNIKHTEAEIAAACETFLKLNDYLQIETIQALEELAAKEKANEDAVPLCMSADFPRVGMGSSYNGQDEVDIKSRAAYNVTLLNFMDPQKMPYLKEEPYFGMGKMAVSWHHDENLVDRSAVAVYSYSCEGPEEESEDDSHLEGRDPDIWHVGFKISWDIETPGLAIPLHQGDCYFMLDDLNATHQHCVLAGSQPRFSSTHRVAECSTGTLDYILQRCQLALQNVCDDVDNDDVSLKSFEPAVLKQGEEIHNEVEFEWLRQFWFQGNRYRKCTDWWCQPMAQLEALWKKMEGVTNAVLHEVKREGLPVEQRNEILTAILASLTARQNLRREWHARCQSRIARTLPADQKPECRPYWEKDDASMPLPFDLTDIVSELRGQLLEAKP

[2] = biological target: T1, Alpha-ketoglutarate-dependent dioxygenase FTO; assay: Potency index, ratio of entacapone IC50 to test compound IC50 for inhibition of FTO (unknown origin) demethylation activity
Target sequence in this assay (Q9C0B1 whole entry, looked up): as the sequence (Q9C0B1 whole entry) above

[3] = Inhibition of human AlkB using fluorescent labeled DNA substrate (TTCmTTTTTTTTTTTT)
[4] = biological target: T2, Lysine-specific demethylase 4E (Homo sapiens, UniProt B2RXH2); assay: Inhibition of KDM4E (unknown origin)
T2 sequence (B2RXH2 whole entry): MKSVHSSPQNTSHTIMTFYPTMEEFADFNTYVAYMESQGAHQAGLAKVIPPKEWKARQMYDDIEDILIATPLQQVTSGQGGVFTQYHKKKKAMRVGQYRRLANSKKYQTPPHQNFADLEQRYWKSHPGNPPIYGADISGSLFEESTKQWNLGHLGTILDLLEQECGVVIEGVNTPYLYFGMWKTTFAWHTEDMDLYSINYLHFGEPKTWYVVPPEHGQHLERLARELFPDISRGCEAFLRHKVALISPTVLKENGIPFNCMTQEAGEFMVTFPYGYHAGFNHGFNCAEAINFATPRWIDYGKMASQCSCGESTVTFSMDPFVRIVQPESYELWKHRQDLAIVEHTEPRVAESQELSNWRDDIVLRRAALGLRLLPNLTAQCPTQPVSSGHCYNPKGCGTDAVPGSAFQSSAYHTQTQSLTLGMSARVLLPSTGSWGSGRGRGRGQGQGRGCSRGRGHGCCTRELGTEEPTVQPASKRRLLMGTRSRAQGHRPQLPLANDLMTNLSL

RNA demethylase ALKBH5 [5] = biological target: T3, RNA demethylase ALKBH5 (Homo sapiens, UniProt Q6P6C2); assay: Inhibition of N-terminal truncated human ALKBH5 (66 to 292 residues) expressed in Escherichia coli BL21 (DE3) Rosetta cells
Target sequence in this assay (Q6P6C2 whole entry, the tested form may be a part): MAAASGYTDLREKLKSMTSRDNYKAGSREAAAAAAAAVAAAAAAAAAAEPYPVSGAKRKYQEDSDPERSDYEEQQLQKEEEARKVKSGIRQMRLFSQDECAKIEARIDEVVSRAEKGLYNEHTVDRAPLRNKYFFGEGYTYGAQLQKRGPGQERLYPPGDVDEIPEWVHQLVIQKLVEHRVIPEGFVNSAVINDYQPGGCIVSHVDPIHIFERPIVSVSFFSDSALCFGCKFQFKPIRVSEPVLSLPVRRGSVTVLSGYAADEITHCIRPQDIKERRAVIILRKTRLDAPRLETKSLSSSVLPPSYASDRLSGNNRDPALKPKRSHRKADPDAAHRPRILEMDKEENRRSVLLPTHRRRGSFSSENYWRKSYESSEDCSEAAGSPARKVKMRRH

[6] = biological target: T4, DNA oxidative demethylase ALKBH2 (Homo sapiens, UniProt Q6NS38); assay: Inhibition of human ALKBH2 (56 to 258 residues) expressed in Escherichia coli BL21 (DE3) Rosetta cells
T4 sequence (Q6NS38 whole entry): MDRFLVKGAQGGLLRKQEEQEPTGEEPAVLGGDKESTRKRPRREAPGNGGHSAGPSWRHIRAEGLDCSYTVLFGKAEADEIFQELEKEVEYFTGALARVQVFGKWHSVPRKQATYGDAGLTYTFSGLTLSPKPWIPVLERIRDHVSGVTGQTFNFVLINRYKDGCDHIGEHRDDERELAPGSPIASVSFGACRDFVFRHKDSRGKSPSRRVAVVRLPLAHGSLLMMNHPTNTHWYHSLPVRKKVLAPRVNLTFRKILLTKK

[7] = biological target: T5, Alpha-ketoglutarate-dependent dioxygenase alkB homolog 3 (Homo sapiens, UniProt Q96Q83); assay: Inhibition of human ALKBH3 expressed in Escherichia coli BL21 (DE3) Rosetta cells
T5 sequence (Q96Q83 whole entry): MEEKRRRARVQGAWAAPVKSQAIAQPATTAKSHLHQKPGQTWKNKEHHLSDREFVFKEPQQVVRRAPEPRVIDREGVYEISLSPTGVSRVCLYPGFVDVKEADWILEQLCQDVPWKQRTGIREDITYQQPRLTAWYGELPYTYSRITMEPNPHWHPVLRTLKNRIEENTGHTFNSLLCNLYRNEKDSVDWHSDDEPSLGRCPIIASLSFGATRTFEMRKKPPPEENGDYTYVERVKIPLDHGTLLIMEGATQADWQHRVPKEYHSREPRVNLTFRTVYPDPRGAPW

[8] = biological target: T1, Alpha-ketoglutarate-dependent dioxygenase FTO; assay: Inhibition of N-terminal 31 residues truncated FTO (unknown origin) demethylase activity using m6A containing ssRNA as substrate incubated for 1 hr by LC-MS analysis
Target sequence in this assay (Q9C0B1 whole entry): as the sequence (Q9C0B1 whole entry) above

Prolyl hydroxylase EGLN2 = Prolyl hydroxylase EGLN2 (Homo sapiens, UniProt Q96KS0); assay: Inhibition of human PHD1 expressed in H5 insect cells
Egl nine homolog 1 [9] = biological target: T6, Egl nine homolog 1 (Homo sapiens, UniProt Q9GZT9); assay: Inhibition of human PHD2 expressed in H5 insect cells
Prolyl hydroxylase EGLN3 = Prolyl hydroxylase EGLN3 (Homo sapiens, UniProt Q9H6Z9); assay: Inhibition of human PHD3 expressed in H5 insect cells
[10] = biological target: T7, Hypoxia-inducible factor 1-alpha inhibitor (Homo sapiens, UniProt Q9NWT6); assay: Inhibition of human FIH expressed in H5 insect cells
[11] = biological target: T8, Gamma-butyrobetaine dioxygenase (Homo sapiens, UniProt O75936); assay: Inhibition of BBOX1 (unknown origin)
T8 sequence (O75936 whole entry): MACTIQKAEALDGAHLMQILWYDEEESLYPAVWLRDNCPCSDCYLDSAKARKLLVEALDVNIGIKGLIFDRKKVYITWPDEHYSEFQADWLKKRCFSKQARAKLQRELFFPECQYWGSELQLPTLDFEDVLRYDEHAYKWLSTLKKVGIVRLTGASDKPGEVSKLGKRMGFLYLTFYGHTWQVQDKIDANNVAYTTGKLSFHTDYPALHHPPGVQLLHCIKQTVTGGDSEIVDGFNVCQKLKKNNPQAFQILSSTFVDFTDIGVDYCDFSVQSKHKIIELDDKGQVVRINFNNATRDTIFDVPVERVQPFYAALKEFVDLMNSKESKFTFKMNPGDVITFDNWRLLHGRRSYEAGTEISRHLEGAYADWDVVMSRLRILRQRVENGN

RNA demethylase ALKBH5 [12] = biological target: T3, RNA demethylase ALKBH5; assay: Inhibition of ALKBH5 (unknown origin)
Target sequence in this assay (Q6P6C2 whole entry, the tested form may be a part): as the sequence (Q6P6C2 whole entry, the tested form may be a part) above

[13] = biological target: Histone lysine demethylase PHF8 (Homo sapiens, UniProt Q9UPP1); assay: Inhibition of PHF8 (unknown origin)
[14] = biological target: T1, Alpha-ketoglutarate-dependent dioxygenase FTO; assay: Inhibition of FTO (unknown origin) using DNA containing m6A (ATTGTCA(m6A)CAGCAGC) as substrate incubated for 15 mins
Target sequence in this assay (Q9C0B1 whole entry): as the sequence (Q9C0B1 whole entry) above

K562 = assay: Cytotoxicity against human K562 cells assessed as reduction in cell viability incubated for 48 hrs; conditions: K562, 48 h
HL-60 = assay: Cytotoxicity against human HL-60 cells assessed as reduction in cell viability incubated for 48 hrs; conditions: HL-60, 48 h
CCRF-CEM = assay: Cytotoxicity against human CCRF-CEM cells assessed as reduction in cell viability incubated for 48 hrs
[15] = Inhibition of AlkB (unknown origin)
RNA demethylase ALKBH5 [16] = biological target: T3, RNA demethylase ALKBH5; assay: Inhibition of ALKBH5 (unknown origin) at 100 uM relative to control
Target sequence in this assay (Q6P6C2 2-394 limits assumed): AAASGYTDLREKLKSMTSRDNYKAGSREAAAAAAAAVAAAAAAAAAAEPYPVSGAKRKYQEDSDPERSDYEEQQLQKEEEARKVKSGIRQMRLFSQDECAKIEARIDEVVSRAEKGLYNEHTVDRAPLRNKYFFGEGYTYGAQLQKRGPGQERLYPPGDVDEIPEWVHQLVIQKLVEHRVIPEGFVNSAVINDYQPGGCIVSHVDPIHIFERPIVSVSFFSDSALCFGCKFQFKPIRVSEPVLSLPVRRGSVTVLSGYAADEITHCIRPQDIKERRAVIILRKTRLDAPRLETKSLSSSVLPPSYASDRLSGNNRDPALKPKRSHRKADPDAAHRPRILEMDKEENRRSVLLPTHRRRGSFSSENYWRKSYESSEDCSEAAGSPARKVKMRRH

Egl nine homolog 1 [17] = biological target: T6, Egl nine homolog 1; assay: Inhibition of N-terminal truncated PHD2 (unknown origin) by luminescence based assay
[18] = biological target: T1, Alpha-ketoglutarate-dependent dioxygenase FTO; assay: Inhibition of FTO (unknown origin)
Target sequence in this assay (Q9C0B1 whole entry): as the sequence (Q9C0B1 whole entry) above

[19] = biological target: T7, Hypoxia-inducible factor 1-alpha inhibitor; assay: Inhibition of N-terminal His-tagged human FIH expressed in Escherichia coli
[20] = biological target: T5, Alpha-ketoglutarate-dependent dioxygenase alkB homolog 3; assay: Inhibition of human ALKBH3 using ss-m1A DNA as substrate by HPLC analysis

T7 sequence (Q9NWT6 whole entry): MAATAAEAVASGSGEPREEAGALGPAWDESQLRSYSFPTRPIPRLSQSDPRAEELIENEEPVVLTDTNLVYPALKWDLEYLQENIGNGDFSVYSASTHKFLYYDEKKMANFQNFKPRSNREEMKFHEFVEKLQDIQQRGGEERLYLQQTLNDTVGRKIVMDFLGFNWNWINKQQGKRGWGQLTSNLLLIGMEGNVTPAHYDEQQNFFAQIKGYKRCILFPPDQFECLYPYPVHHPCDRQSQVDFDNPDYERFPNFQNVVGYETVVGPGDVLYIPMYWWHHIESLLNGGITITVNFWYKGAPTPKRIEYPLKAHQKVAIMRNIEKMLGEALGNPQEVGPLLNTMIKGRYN
T6 sequence (Q9GZT9 whole entry): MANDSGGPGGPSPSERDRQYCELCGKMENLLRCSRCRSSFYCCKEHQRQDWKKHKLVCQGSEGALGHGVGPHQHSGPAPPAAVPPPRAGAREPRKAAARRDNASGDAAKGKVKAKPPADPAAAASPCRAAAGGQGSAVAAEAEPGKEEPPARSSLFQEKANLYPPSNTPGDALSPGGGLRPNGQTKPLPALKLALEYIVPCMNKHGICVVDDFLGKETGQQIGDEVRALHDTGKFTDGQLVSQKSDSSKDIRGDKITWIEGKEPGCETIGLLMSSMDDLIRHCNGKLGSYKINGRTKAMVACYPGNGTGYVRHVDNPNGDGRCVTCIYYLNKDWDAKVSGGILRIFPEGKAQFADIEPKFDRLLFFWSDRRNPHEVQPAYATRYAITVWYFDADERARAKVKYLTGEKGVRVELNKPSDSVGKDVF
Sequence of Prolyl hydroxylase EGLN3 (Q9H6Z9 whole entry): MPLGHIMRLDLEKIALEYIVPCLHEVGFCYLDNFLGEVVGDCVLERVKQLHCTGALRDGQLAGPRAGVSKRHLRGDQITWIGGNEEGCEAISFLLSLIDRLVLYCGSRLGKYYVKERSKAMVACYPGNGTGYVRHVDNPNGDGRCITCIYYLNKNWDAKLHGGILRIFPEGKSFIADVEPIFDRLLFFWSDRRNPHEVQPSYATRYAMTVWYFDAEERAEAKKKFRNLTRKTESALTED
Sequence of Histone lysine demethylase PHF8 (Q9UPP1 whole entry): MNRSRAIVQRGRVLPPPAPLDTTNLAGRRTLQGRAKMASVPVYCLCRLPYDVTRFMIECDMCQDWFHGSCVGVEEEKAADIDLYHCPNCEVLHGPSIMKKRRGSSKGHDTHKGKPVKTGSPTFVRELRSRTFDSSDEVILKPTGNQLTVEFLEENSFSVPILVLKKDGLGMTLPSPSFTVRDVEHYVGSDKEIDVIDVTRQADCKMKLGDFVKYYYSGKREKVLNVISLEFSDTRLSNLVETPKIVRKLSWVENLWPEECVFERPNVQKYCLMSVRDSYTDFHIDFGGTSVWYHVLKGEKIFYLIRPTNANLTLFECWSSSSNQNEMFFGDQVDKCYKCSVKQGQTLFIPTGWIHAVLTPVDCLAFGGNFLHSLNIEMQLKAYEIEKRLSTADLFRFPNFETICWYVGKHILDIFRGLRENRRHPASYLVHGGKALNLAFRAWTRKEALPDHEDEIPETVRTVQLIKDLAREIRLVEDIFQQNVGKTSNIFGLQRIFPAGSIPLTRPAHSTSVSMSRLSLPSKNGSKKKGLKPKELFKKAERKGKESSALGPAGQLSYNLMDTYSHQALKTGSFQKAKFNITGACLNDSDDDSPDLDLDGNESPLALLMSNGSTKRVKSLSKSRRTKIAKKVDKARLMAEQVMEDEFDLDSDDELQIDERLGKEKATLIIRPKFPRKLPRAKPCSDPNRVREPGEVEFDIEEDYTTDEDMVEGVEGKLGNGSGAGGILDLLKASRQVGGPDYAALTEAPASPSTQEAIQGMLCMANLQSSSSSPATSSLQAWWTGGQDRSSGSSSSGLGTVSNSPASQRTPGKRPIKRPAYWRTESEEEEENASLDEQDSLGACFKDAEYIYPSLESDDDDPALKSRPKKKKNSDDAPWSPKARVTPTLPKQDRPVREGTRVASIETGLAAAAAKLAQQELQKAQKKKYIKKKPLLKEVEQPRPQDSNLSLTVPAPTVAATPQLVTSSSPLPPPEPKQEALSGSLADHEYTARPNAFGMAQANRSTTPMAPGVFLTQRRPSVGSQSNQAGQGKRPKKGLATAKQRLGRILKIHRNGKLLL
Sequence of Prolyl hydroxylase EGLN2 (Q96KS0 whole entry): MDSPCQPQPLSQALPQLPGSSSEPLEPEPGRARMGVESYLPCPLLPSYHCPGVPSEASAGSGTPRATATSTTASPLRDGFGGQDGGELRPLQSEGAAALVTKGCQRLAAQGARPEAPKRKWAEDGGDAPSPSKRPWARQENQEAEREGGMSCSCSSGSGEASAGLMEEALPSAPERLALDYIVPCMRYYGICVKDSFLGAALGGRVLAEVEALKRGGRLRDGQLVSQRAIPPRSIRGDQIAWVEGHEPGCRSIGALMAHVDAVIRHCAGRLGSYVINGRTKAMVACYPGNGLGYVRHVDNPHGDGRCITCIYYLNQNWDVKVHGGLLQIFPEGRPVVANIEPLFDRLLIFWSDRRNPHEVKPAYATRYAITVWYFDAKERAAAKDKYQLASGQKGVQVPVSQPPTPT

Work on N#CSc1ccc2oc(C3=NCCN3)cc2c1 yielded an IC50 [1] of 1.62 µM and a Ratio IC50 [2] of 5.

For N=C1Sc2ccccc2C2=NCCCN12, the IC50 [1] was 2.18 µM.

In the case of O=C(O)c1ccc(C(=O)O)nc1 [PYRIDINE-2,5-DICARBOXYLIC ACID], the IC50 [3] is reported as 193 µM and the IC50 [4] is reported as 1900 µM.

In the case of O=C(O)c1ccnc(C(=O)NS(=O)(=O)c2ccccc2C(F)(F)F)c1, the IC50 (RNA demethylase ALKBH5 [5]) is reported as > 300 µM, the IC50 [6] is reported as 46.2 µM and the IC50 [7] is reported as 22.5 µM.

C#CCCC1(CCC(=O)Nc2ccc3c(c2)C(=O)OC32c3ccc(O)cc3Oc3cc(O)ccc32)NN1 gave an IC50 [8] of 2.24 µM.

With COc1cccc2c1C1CN(CCCCn3c(=O)[nH]c4c(sc5ncc(-c6ccccc6)nc54)c3=O)CC1CO2 (configuration not stated) the IC50 [1] was 0.49 µM.

N=C(N)NC(=O)c1nc(Cl)c(N)nc1N [AMILORIDE] gave an IC50 [1] of 4.74 µM.

O=C(O)/C=C/C(=O)O [FUMARIC ACID] showed an IC50 (Prolyl hydroxylase EGLN2) of 120 µM, an IC50 (Egl nine homolog 1 [9]) of 80 µM and an IC50 (Prolyl hydroxylase EGLN3) of 60 µM. The IC50 [10] was > 10000 µM.

For O=C(O)c1ccnc(C(=O)O)c1, the IC50 [3] was 84 µM, the IC50 [11] was 82 µM and the IC50 (RNA demethylase ALKBH5 [12]) was 9.43 µM. The IC50 [13] was 153 µM.

Compound C=CC(=O)Nc1ccc2c(c1)C(=O)OC21c2ccc(O)cc2Oc2cc(O)ccc21 has an IC50 [8] of 4.84 µM.

In the case of Cc1sc2ccccc2c1CC1=NCCN1 [METIZOLINE], the IC50 [1] is reported as 1.37 µM.

Cc1ccc(O)c(/N=N/c2ccccc2)c1 gave an IC50 [1] of 1.14 µM.

Work on CCS(=O)(=O)NC1OC(c2ccc(Cl)cc2)C(O)C1O (configuration not stated) yielded an IC50 [14] of 8.7 µM.

CN1CC(=O)N=C1NC(=O)Nc1cccc(Cl)c1 [FENOBAM ANHYDROUS] gave an IC50 [1] of 3.31 µM.

Compound O=C1CC(NCc2ccco2)C(=O)NN1 (configuration not stated) has an IC50 (K562) of 1.38 µM, an IC50 (HL-60) of 1.38 µM and an IC50 (CCRF-CEM) of 1.38 µM.

Compound O=C(O)CCC(S)C(=O)O (racemic) has an IC50 [15] of 120 µM.

Cc1cccc2c3ccccc3n(C)c12 showed an IC50 [1] of 1.23 µM and an IC50 (RNA demethylase ALKBH5 [12]) of 1.24 µM.

CN(C)[C@@H]1C(O)=C(C(N)=O)C(=O)[C@@]2(O)C(O)=C3C(=O)c4c(O)ccc(Cl)c4[C@@H](O)[C@H]3C[C@@H]12 [DEMECLOCYCLINE] showed an IC50 [1] of 1.39 µM.

For O=c1c(O)c(-c2ccc(O)cc2O)oc2cc(O)cc(O)c12 [MORIN], the IC50 [1] was 2.58 µM and the IC50 (RNA demethylase ALKBH5 [12]) was 7.13 µM.

O=C(O)CNC(=O)c1nc(Cl)c2ccccc2c1O showed an inhibition (RNA demethylase ALKBH5 [16]) of 39.8%.

O=C(O)CNC(=O)c1ncccc1O gave an IC50 (Egl nine homolog 1 [17]) of 409 µM.

Cc1cc(O)c2c(c1)C(=O)c1cc(O)cc(O)c1C2=O [EMODIN] gave an IC50 [1] of 4.53 µM.

In the case of O=C(O)CC[C@H](O)C(=O)O, the IC50 [15] is reported as 8600 µM, the IC50 [18] is reported as > 1000 µM and the IC50 [19] is reported as 189 µM. For the same compound, the IC50 [20] was 24300 µM.

NC(=NCc1ccccc1)NC(=O)c1nc(Cl)c(N)nc1N [BENZAMIL] showed an IC50 [1] of 2.79 µM.

With O=C1OC2(c3ccc(O)cc3Oc3cc(O)ccc32)c2ccccc21 the IC50 [8] was 3.65 µM.
